These results are taken from US10669258B2, “3-sulfonyl-5-aminopyridine-2,4-diol APJ agonists” (BRISTOL-MYERS SQUIBB COMPANY, priority 2016, dated 2020).

Structures are written as SMILES.

The target in this experiment is T1, human APJ receptor (Homo sapiens, UniProt P35414).
T1 construct: expressed in transfected cells; host or cells: HEK293
T1 sequence (P35414 1-380): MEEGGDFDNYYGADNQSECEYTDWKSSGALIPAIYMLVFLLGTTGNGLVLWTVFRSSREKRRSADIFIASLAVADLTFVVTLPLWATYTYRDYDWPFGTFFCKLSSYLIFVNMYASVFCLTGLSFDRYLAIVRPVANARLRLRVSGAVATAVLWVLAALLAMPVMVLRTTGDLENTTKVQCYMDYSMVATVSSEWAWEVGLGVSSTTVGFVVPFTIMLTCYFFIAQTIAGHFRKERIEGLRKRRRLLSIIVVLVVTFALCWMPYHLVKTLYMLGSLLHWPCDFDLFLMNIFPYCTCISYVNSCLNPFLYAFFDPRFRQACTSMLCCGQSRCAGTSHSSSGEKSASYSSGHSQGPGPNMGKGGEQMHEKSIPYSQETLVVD
Briefly: Intracellular cAMP accumulation assay (APJ hcAMP, HTRF). It is filed as cell-based. The conditions noted are these: HEK293 cells stably expressing human APJ receptor; inhibition of forskolin-mediated cAMP production; Table 1; read-out: hAPJ cAMP EC50 Potency range. An outline of the steps:
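HEK293 cells stably expressing the receptor (5,000/well) treated with compound plus […] and 2 μM forskolin for 30 min at room temperature; cAMP by HTRF against a cAMP standard curve. EC50 from variable-slope sigmoidal fit; Ymax as % of (Pyr1)apelin-13 inhibition.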
On the technique in general: Cyclic AMP is a second messenger, typically raised through Gs and lowered through Gi signalling.

Take `CCCCc1nc(O)c(S(=O)(=O)c2ccc(-c3ccnc(F)c3C)cc2)c(O)c1N(C)c1cccc(C)c1` [Example 091, 6-butyl-3-((4-(2-fluoro-3-methylpyridin-4-yl)phenyl)sulfonyl)-5-(methyl(m-tolyl)amino)pyridine-2,4-diol]: the EC50 (as a rule, the concentration giving half of the maximal effect) was 0.01 to 10 nM.

For `CCCCc1nc(O)c(S(=O)(=O)c2ccc(-c3ccnc(F)c3C)cc2)c(O)c1N(C)c1ccc(C)cc1` [Example 092, 6-butyl-3-((4-(2-fluoro-3-methylpyridin-4-yl)phenyl)sulfonyl)-5-(methyl(p-tolyl)amino)pyridine-2,4-diol], the EC50 is 0.01 to 10 nM.

Consider `CCCCc1nc(O)c(S(=O)(=O)c2ccc(Br)cc2)c(O)c1N(C)c1cccc(C)c1` [Example 093, 3-((4-bromophenyl)sulfonyl)-6-butyl-5-(methyl(m-tolyl)amino)pyridine-2,4-diol], for which the EC50 lay within 10 to 100 nM.

Take `CCCCc1nc(O)c(S(=O)(=O)c2ccc(-c3ccncc3C)cc2)c(O)c1N(C)c1ccc(C)cc1` [Example 094, 6-butyl-5-(methyl(p-tolyl)amino)-3-((4-(3-methylpyridin-4-yl)phenyl)sulfonyl)pyridine-2,4-diol]: the EC50 fell in the range of 0.01 to 10 nM.

On to `CCCCc1nc(O)c(S(=O)(=O)c2ccc(-c3ccc(F)nc3C)cc2)c(O)c1N(C)c1cccc(C)c1` [Example 095, 6-butyl-3-((4-(6-fluoro-2-methylpyridin-3-yl)phenyl)sulfonyl)-5-(methyl(m-tolyl)amino)pyridine-2,4-diol], for which the half-maximal effective concentration (EC50) was 10 to 100 nM.

As to `CCCCc1nc(O)c(S(=O)(=O)c2ccc(-c3cccnc3C)cc2)c(O)c1N(C)c1cccc(C)c1` [Example 096, 6-butyl-5-(methyl(m-tolyl)amino)-3-((4-(2-methylpyridin-3-yl)phenyl)sulfonyl)pyridine-2,4-diol], the EC50 lay within 0.01 to 10 nM.

As to `CCCCc1nc(O)c(S(=O)(=O)c2ccc(-c3cccnc3C)cc2)c(O)c1N(C)c1ccc(C)cc1` [Example 097, 6-butyl-5-(methyl(p-tolyl)amino)-3-((4-(2-methylpyridin-3-yl)phenyl)sulfonyl)pyridine-2,4-diol], the EC50 lay in the range of 10 to 100 nM.

For the compound `CCCCc1nc(O)c(S(=O)(=O)c2ccc(-n3cc(C)ccc3=O)cc2)c(O)c1N(C)c1ccc(C)cc1` [Example 098, 1-(4-((6-butyl-2,4-dihydroxy-5-(methyl(p-tolyl)amino)pyridin-3-yl)sulfonyl)phenyl)-5-methylpyridin-2(1H)-one], the concentration for a half-maximal effect (EC50) was 0.01 to 10 nM.

As to `CCCCc1nc(O)c(S(=O)(=O)c2ccc(-n3cc(C)ccc3=O)cc2)c(O)c1N(C)c1cccc(C)c1` [Example 099, 1-(4-((6-butyl-2,4-dihydroxy-5-(methyl(m-tolyl)amino)pyridin-3-yl)sulfonyl)phenyl)-5-methylpyridin-2(1H)-one], the EC50 was 10 to 100 nM.

For `CCCCc1nc(O)c(S(=O)(=O)c2ccc(C3CC3)cc2)c(O)c1N(C)c1ccc(C)cc1` [Example 100, 6-butyl-3-((4-cyclopropylphenyl)sulfonyl)-5-(methyl(p-tolyl)amino)pyridine-2,4-diol], the EC50 lay in the range of 10 to 100 nM.

For the compound `CCCCc1nc(O)c(S(=O)(=O)c2ccc(-c3cccnc3C)cc2)c(O)c1N(C)c1cccc(F)c1` [Example 101, 6-butyl-5-((3-fluorophenyl)(methyl)amino)-3-((4-(2-methylpyridin-3-yl)phenyl)sulfonyl)pyridine-2,4-diol], the EC50 fell in the range of 0.01 to 10 nM.

In the case of `CCCCc1nc(O)c(S(=O)(=O)c2ccc(-c3cccnc3C)cc2)c(O)c1N(C)c1cccc(Cl)c1` [Example 102, 6-butyl-5-((3-chlorophenyl)(methyl)amino)-3-((4-(2-methylpyridin-3-yl)phenyl)sulfonyl)pyridine-2,4-diol], the EC50 fell in the range of 10 to 100 nM.

Turning to `CCCCc1nc(O)c(S(=O)(=O)c2ccc(-c3ccnc(F)c3C)cc2)c(O)c1N(C)c1ccc(Cl)cc1` [Example 103, 6-butyl-5-((4-chlorophenyl)(methyl)amino)-3-((4-(2-fluoro-3-methylpyridin-4-yl)phenyl)sulfonyl)pyridine-2,4-diol], the EC50 was 0.01 to 10 nM.
